In this data set the target is SOD1. Particulars: ASO.

“And” between values parts separate entries of the source, which are not always exact repeats. Identical values can stand only once. After the bases stand the sugars from the 5' end (letter, count) and the backbone: PS all phosphorothioate, else s phosphorothioate and o phosphodiester by linkage. Methylation of C is not given here. e = 2'-O-(2-methoxyethyl) (MOE); k = constrained ethyl (cEt); d = 2'-deoxy (DNA)

For the sequence “ATGTTTATCAGGATACA (sugars e2 k2 d8 k2 e3, linkages s1 o2 s9 o2 s2)”, the target mRNA inhibition reads like this: (A431, 0.12 µM) 2%; (A431, 0.6 µM) 4%; (A431, 3 µM) 12%; (A431, 15 µM) 52%; (HepG2, 0.222 µM) 53%; (HepG2, 0.667 µM) 73%. This sequence yielded a target mRNA inhibition (HepG2, 2 µM) of 89% and a target mRNA inhibition (HepG2, 6 µM) of 90%.

Where the note is “HepG2, 3 µM”, “TTAATACCCATCTGTGA (sugars e3 k2 d7 k2 e3, PS)” showed a target mRNA inhibition of 2%.

“ACCCATCTGTGATTTAA (sugars e2 k2 d9 k2 e2, PS)”: the target mRNA inhibition (HepG2, 5 µM) was determined as 44%.

In the case of “GCAGGATAACAGATGAG (sugars e2 k2 d8 k2 e3, PS)”, the target mRNA inhibition (HepG2, 0.1875 µM) came out at 26%; the target mRNA inhibition (HepG2, 0.75 µM) was determined as 67%; the target mRNA inhibition (HepG2, 3 µM) was found to be 84%; the target mRNA inhibition (HepG2, 4 µM) was determined as 79%; the target mRNA inhibition (HepG2, 12 µM) came out at 93%.

For “GTCTCCAACATGCCTCT (sugars e3 k2 d7 k2 e3, PS)”, the target mRNA inhibition (HepG2, 3 µM) was 8%.

For the sequence “GTTTTCTGGATAGAGGATTA (sugars e5 d10 e5, PS)”, the target mRNA inhibition (HepG2, 5 µM) is 28% and 39%.

“AGCTAGCAGGATAACAG (sugars e3 k2 d7 k2 e3, PS)”: the target mRNA inhibition (HepG2, 3 µM) is 15%.

In turn, “GGCTTGAATGACAAAGA (sugars e2 k2 d9 k2 e2, PS)” displayed a target mRNA inhibition (HepG2, 5 µM) of 44%.

“TTTTATTCACAGGCTTG (sugars e2 k2 d8 k2 e3, PS)” came in with a target mRNA inhibition (HepG2, 5 µM) of 43%.

Take “TATTGGGCGATCCCAAT (sugars e2 k2 d9 k2 e2, PS)”: for the setting “HepG2, 4 µM”, the target mRNA inhibition came out at 6%.

Where the note is “HepG2, 4 µM”, “CGTCGCCCTTCAGCACG (sugars e2 k2 d9 k2 e2, PS)” displayed a target mRNA inhibition of 43%.

Sequence “TCCAAGGGAATGTTTAT (sugars e2 k2 d8 k2 e3, PS)” gave a target mRNA inhibition (HepG2, 4 µM) of 27%.

Turning to “ATGTTTATCAGGATACA (sugars e2 k2 d8 k2 e3, PS)”, the target mRNA inhibition reads like this: (HepG2, 0.1875 µM) 40%; (HepG2, 0.75 µM) 75%; (HepG2, 3 µM) 92%; (HepG2, 4 µM) 85% and 86%; (HepG2, 12 µM) 95% and 98%.

As for “TGAGGACCTGCACTGGT (sugars e3 k2 d7 k2 e3, PS)”, the target mRNA inhibition (HepG2, 3 µM) stood at 8%.

For the sequence “AGTGTTTAATGTTTATCAGG (sugars e5 d10 e5, linkages s1 o3 s11 o3 s1)”, the target mRNA inhibition worked out at 16% (A431, 0.12 µM); 49% (A431, 0.6 µM); 60% (A431, 3 µM); 75% (A431, 15 µM); 28% (HepG2, 0.222 µM); 55% (HepG2, 0.667 µM). Also, the target mRNA inhibition by setting is: (HepG2, 2 µM) 89%; (HepG2, 6 µM) 80%.

Where the note is “HepG2, 4 µM”, “TTTATTGGGCGATCCCA (sugars e2 k2 d9 k2 e2, PS)” showed a target mRNA inhibition of 46%.

As for “TTCATGGACCACCAGTGTGC (sugars e5 d10 e5, PS)”, for the setting “HepG2, 5 µM”, the target mRNA inhibition stood at 21%.

Take “TGCCATACAGGGTTTTT (sugars e3 k2 d7 k2 e3, PS)”: the target mRNA inhibition (HepG2, 3 µM) amounted to 9%.

On to “TCAGGATACATTTCTACAGC (sugars e5 d10 e5, PS)”, for which the target mRNA inhibition reads like this: (HepG2, 0.1875 µM) 13%; (HepG2, 0.75 µM) 42%; (HepG2, 3 µM) 75%; (HepG2, 5 µM) 70%; (HepG2, 12 µM) 92%.

“GATCCCAATTACACCAC (sugars e3 k2 d7 k2 e3, PS)” showed a target mRNA inhibition (HepG2, 3 µM) of 3%.

Sequence “ATTACACCACAAGCCAA (sugars e2 k2 d8 k2 e3, PS)” had a target mRNA inhibition (HepG2, 4 µM) of 46%.

With “GATTCTTTTAATAGCCTCAT (sugars e5 d10 e5, PS)”, the target mRNA inhibition (HepG2, 5 µM) came to 4%.

“GATAACAGATGAGTTAA (sugars e3 k2 d7 k2 e3, PS)” gave a target mRNA inhibition (HepG2, 3 µM) of 11%.

Regarding “GATGCCCTGCACTGGGCCGT (sugars e5 d10 e5, PS)”, where the note is “HepG2, 4 µM”, the target mRNA inhibition worked out at 15%.

Where the note is “HepG2, 4 µM”, “TACACCACAAGCCAAAC (sugars e2 k2 d8 k2 e3, PS)” had a target mRNA inhibition of 56%.

For “CCCAATTACACCACAAG (sugars e2 k2 d9 k2 e2, PS)”, the target mRNA inhibition came to 25% (HepG2, 0.1875 µM); 52% (HepG2, 0.75 µM); 82% (HepG2, 3 µM); 74% (HepG2, 4 µM); 97% (HepG2, 12 µM).

In the case of “ACCTCCGCGCCTCGCCCACT (sugars e5 d10 e5, PS)”, the target mRNA inhibition was 63% and 77% (HepG2, 4 µM); 92% (HepG2, 12 µM).

Where the note is “HepG2, 5 µM”, “AACTATACAAATCTTCC (sugars e2 k2 d8 k2 e3, PS)” returned a target mRNA inhibition of 60%.

For the sequence “CCAATGATGCAATGGTCTCC (sugars e5 d10 e5, PS)”, the target mRNA inhibition (HepG2, 5 µM) turned out to be 8%.

Take “GTCATTGAAACAGACAT (sugars e2 k2 d8 k2 e3, PS)”: under “HepG2, 5 µM”, the target mRNA inhibition turned out to be 2%.

Consider “CTTCCCCACACCTTCACT (sugars e5 d8 e5, linkages s1 o3 s9 o2 s2)”, for which the target mRNA inhibition is 0% (A431, 0.12 µM); 8% (A431, 0.6 µM); 3% (A431, 3 µM); 0% (A431, 15 µM); 0% (HepG2, 0.222 µM); 8% (HepG2, 0.667 µM). The target mRNA inhibition worked out at 38% (HepG2, 2 µM) and 48% (HepG2, 6 µM).

Where the note is “HepG2, 5 µM”, “CTGGCAAAATACAGGTC (sugars e2 k2 d9 k2 e2, PS)” registered a target mRNA inhibition of 53%.

With “GGATACATTTCTACAGC (sugars e2 k2 d9 k2 e2, linkages s1 o3 s9 o1 s2)”, the target mRNA inhibition reads like this: (A431, 0.12 µM) 4%; (A431, 0.6 µM) 12%; (A431, 3 µM) 36%; (A431, 15 µM) 51%; (HepG2, 0.222 µM) 62%; (HepG2, 0.667 µM) 78%. The target mRNA inhibition amounted to 95% (HepG2, 2 µM) and 91% (HepG2, 6 µM).

On to “CCCACACCTTCACTGG (sugars ekddddddddekekee, linkages s1 o1 s8 o3 s2)”, for which the target mRNA inhibition reads like this: (A431, 0.12 µM) 2%; (A431, 0.6 µM) 0%; (A431, 3 µM) 0%; (A431, 15 µM) 12%; (HepG2, 0.222 µM) 15%; (HepG2, 0.667 µM) 31%. The target mRNA inhibition (HepG2, 2 µM) came to 58% and the target mRNA inhibition (HepG2, 6 µM) amounted to 81%.

With “CTAGCAGGATAACAGAT (sugars e3 k2 d7 k2 e3, PS)”, the target mRNA inhibition (HepG2, 3 µM) turned out to be 39%.

Under “HepG2, 5 µM”, “ATTCACAGGCTTGAATG (sugars e2 k2 d8 k2 e3, PS)” had a target mRNA inhibition of 19%.

“CGCAAACCAGCACCCCGTCT (sugars e5 d10 e5, PS)”: where the note is “HepG2, 4 µM”, the target mRNA inhibition came out at 21%.

“GATTACAGTGTTTAATG (sugars e3 k2 d7 k2 e3, PS)” returned a target mRNA inhibition (HepG2, 3 µM) of 10%.

Consider “CCCTTCAGCACGCACAC (sugars e2 k2 d9 k2 e2, PS)”, for which the target mRNA inhibition was found to be 14% (HepG2, 0.1875 µM); 47% (HepG2, 0.75 µM); 82% (HepG2, 3 µM); 81% (HepG2, 4 µM); 97% (HepG2, 12 µM).

In the case of “TTAATGTTTATCAGGAT (sugars e2 k2 d8 k2 e3, linkages s1 o2 s9 o2 s2)”, the target mRNA inhibition by setting is: (A431, 0.12 µM) 12%; (A431, 0.6 µM) 36%; (A431, 3 µM) 49%; (A431, 15 µM) 72%; (HepG2, 0.222 µM) 67%; (HepG2, 0.667 µM) 90%. Further, the target mRNA inhibition runs as follows: (HepG2, 2 µM) 97%; (HepG2, 6 µM) 94%.

Where the note is “HepG2, 5 µM”, “CTTTTAATAGCCTCATAATA (sugars e5 d10 e5, PS)” registered a target mRNA inhibition of 0%.

For the setting “HepG2, 3 µM”, “TGGTCCATTACTTTCCT (sugars e3 k2 d7 k2 e3, PS)” yielded a target mRNA inhibition of 5%.

As to “TCAGTTTCTCACTACAG (sugars e2 k2 d8 k2 e3, PS)”, the target mRNA inhibition (HepG2, 5 µM) amounted to 25%.

“ATTGGGCGATCCCAATT (sugars e3 k2 d7 k2 e3, PS)” yielded a target mRNA inhibition (HepG2, 3 µM) of 19%.

Take “GAGGTCCTGGTTCCGAGGAC (sugars e5 d10 e5, PS)”: where the note is “HepG2, 4 µM”, the target mRNA inhibition was 31%.

Where the note is “HepG2, 5 µM”, “GGATAACAGATGAGTTAAGG (sugars e5 d10 e5, PS)” returned a target mRNA inhibition of 48%.

Take “AACCAGCACCCCGTCTCCGC (sugars e5 d10 e5, PS)”: under “HepG2, 4 µM”, the target mRNA inhibition was determined as 11%.

As to “TTGGATTCTTTTAATAG (sugars e2 k2 d8 k2 e3, PS)”, for the setting “HepG2, 5 µM”, the target mRNA inhibition amounted to 23%.

Consider “GATAGAGGATTAAAGTG (sugars e3 k2 d7 k2 e3, PS)”, for which the target mRNA inhibition (HepG2, 3 µM) is 8%.

As to “GCAGGATAACAGATGAG (sugars e2 k2 d9 k2 e2, PS)”, the target mRNA inhibition by setting is: (HepG2, 0.1875 µM) 31%; (HepG2, 0.75 µM) 75%; (HepG2, 3 µM) 90%; (HepG2, 4 µM) 86% and 83%; (HepG2, 12 µM) 89% and 97%.

As for “AACAGATGAGTTAAGGG (sugars e2 k2 d8 k2 e3, PS)”, the target mRNA inhibition was found to be 32% (HepG2, 0.1875 µM); 55% (HepG2, 0.75 µM); 78% (HepG2, 3 µM); 73% (HepG2, 4 µM); 93% (HepG2, 12 µM).

As for “CAGGATACATTTCTACAGCT (sugars e5 d10 e5, linkages s1 o3 s11 o3 s1)”, the target mRNA inhibition is, setting by setting: (A431, 0.12 µM) 13%; (A431, 0.6 µM) 24%; (A431, 3 µM) 41%; (A431, 15 µM) 62%; (HepG2, 0.222 µM) 38%; (HepG2, 0.667 µM) 70%. Besides, the target mRNA inhibition (HepG2, 2 µM) turned out to be 95% and the target mRNA inhibition (HepG2, 6 µM) is 88%.

“AGGTCATTGAAACAGAC (sugars e3 k2 d7 k2 e3, PS)”: the target mRNA inhibition (HepG2, 3 µM) was 21%.

Values taken from the OligoGym collection.
